# Results: ChEMBL document CHEMBL1135938, “Synthesis of N-[4-[1-ethyl-2-(2,4-diaminofuro[2,3-d]pyrimidin-5-yl)ethyl]benzoyl]-L-glutamic acid as an antifolate” (J Med Chem, 2002)
# What was measured:
# [1] = Inhibition of growth of R30dm (n=2); format: functional, Homo sapiens
# R2 [2] = assay: Inhibition of growth of R2 (n=2); format: functional, cell-based; details: Homo sapiens
# R1 [3] = assay: Inhibition of growth of R1 (n=2); details: Homo sapiens
# ACHN = assay: Inhibition of growth of ACHN renal cancer cell line; format: functional; details: Homo sapiens
# A549 = assay: Inhibition of growth of A549/ATCC nonsmall cell lung cancer cell line; format: functional; details: Homo sapiens
# CCRF-CEM [4] = assay: Inhibition of growth of CCRF-CEM human leukemia cells (n=2); format: functional, cell-based
# CCRF-CEM [5] = assay: Inhibition of growth of CCRF-CEM leukemia cell line; format: functional; details: Homo sapiens
# [6] = biological target: Bifunctional dihydrofolate reductase-thymidylate synthase (Toxoplasma gondii, UniProt Q07422); assay: Inhibition of Toxoplasma gondii dihydrofolate reductase (DHFR)
# Sequence of Bifunctional dihydrofolate reductase-thymidylate synthase (Q07422 whole entry): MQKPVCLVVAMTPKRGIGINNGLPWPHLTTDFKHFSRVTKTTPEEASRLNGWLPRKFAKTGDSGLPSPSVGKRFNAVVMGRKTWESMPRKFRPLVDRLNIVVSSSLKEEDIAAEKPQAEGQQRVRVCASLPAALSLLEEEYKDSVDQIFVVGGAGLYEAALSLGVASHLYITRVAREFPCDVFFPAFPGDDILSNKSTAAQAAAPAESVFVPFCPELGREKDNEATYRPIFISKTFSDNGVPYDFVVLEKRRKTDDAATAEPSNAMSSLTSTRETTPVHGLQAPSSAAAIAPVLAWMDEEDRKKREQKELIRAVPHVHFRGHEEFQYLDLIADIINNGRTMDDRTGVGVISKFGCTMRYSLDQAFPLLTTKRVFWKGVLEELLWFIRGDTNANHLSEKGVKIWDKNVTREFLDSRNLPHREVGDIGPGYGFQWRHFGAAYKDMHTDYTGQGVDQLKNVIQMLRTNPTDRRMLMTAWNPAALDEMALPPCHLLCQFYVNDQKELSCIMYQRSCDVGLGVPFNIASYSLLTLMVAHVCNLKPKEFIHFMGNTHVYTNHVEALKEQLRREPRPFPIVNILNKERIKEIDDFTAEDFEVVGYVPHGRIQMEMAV
# Dihydrofolate reductase [7] = biological target: Dihydrofolate reductase (Escherichia coli, UniProt P0ABQ4); assay: Inhibition of Escherichia coli dihydrofolate reductase (DHFR)
# Sequence of Dihydrofolate reductase (Escherichia coli, UniProt P0ABQ4) (P0ABQ4 whole entry): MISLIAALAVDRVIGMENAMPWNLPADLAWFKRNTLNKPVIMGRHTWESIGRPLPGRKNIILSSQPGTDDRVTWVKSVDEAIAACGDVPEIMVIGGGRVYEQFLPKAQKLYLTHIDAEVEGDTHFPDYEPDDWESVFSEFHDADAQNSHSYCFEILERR
# HL-60 = assay: Inhibition of growth of HL-60 leukemia cell line; format: functional; details: Homo sapiens
# HCT-15 = assay: Inhibition of growth of HCT -15 colon cancer cell line; format: functional; details: Homo sapiens
# K562 = assay: Inhibition of growth of K-562 leukemia cell line; format: functional; details: Homo sapiens
# LOX IMVI = assay: Inhibition of growth of LOX IMVI melanoma cell line; format: functional; details: Homo sapiens
# MDA-N = assay: Inhibition of growth of MDA-Nbreast cancer cell line; format: functional; details: Homo sapiens
# MDA-MB-435 = assay: Inhibition of growth of MDA-MB-435 breast cancer cell line; format: functional; details: Homo sapiens
# MCF7 = assay: Inhibition of growth of MCF-7 breast cancer cell line; format: functional; details: Homo sapiens
# NCI-H522 = assay: Inhibition of growth of NCI- H522 nonsmall cell lung cancer cell line; format: functional; details: Homo sapiens
# NCI-H460 = assay: Inhibition of growth of NCI-H460 nonsmall cell lung cancer cell line; format: functional; details: Homo sapiens
# OVCAR-5 = assay: Inhibition of growth of OVCAR-5 ovarian cancer cell line; format: functional; details: Homo sapiens
# RPMI-8226 = assay: Inhibition of growth of RPMI-8226 leukemia cell line; format: functional; details: Homo sapiens
# SF-295 = assay: Inhibition of growth of SF-295 CNS cancer cell line; format: functional; details: Homo sapiens
# SW-620 = assay: Inhibition of growth of SW -620 colon cancer cell line; format: functional; details: Homo sapiens
# SR = assay: Inhibition of growth of SR leukemia cell line; format: functional; details: Homo sapiens
# SF-539 = assay: Inhibition of growth of SF-539 CNS cancer cell line; format: functional; details: Homo sapiens
# SK-MEL-5 = assay: Inhibition of growth of SK-MEL5 melanoma cell line; format: functional; details: Homo sapiens
# SF-268 = assay: Inhibition of growth of SF-268 CNS cancer cell line; format: functional; details: Homo sapiens
# Thymidylate synthase [8] = biological target: Thymidylate synthase (Escherichia coli, UniProt C3SWJ7); assay: Inhibition of Escherichia coli thymidylate synthase (TS)
# Sequence of Thymidylate synthase (Escherichia coli, UniProt C3SWJ7) (C3SWJ7 whole entry): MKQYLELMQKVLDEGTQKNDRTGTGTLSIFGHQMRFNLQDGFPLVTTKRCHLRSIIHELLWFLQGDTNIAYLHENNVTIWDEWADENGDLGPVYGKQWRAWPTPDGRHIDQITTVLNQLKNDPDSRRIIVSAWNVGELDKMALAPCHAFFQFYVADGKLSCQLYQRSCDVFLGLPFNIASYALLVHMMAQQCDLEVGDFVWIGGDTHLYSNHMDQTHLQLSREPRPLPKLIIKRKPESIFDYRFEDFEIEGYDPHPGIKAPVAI
# TK-10 = assay: Inhibition of growth of TK-10 renal cancer cell line; format: functional; details: Homo sapiens
# UO-31 = assay: Inhibition of growth of UO-31 renal cancer cell line; format: functional; details: Homo sapiens
# Thymidylate synthase [9] = biological target: Thymidylate synthase (Homo sapiens, UniProt P04818); assay: Inhibition of recombinant human thymidylate synthase (TS)
# Sequence of Thymidylate synthase (Homo sapiens, UniProt P04818) (P04818 whole entry): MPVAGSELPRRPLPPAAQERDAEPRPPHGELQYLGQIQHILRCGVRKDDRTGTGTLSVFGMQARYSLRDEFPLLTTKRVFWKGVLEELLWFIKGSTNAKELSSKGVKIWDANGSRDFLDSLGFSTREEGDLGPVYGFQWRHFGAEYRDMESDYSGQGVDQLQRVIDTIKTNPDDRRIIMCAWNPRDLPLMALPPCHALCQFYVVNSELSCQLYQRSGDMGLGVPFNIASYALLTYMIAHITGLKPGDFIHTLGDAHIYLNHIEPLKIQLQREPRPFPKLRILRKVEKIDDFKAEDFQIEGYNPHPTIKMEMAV
# U-251 = assay: Inhibition of growth of U251 CNS cancer cell line; format: functional; details: Homo sapiens
# HT-29 = assay: Inhibition of growth of HT 29colon cancer cell line; format: functional; details: Homo sapiens
# [10] = Inhibition of growth of IGROV1 ovarian cancer cell line; format: functional; details: Homo sapiens, IGROV-1
# CAKI-1 = assay: Inhibition of growth of CAKI-1 renal cancer cell line; format: functional; details: Homo sapiens
# R2 [11] = assay: Inhibition of growth of R2(n=2); format: functional, cell-based; details: Homo sapiens
# Dihydrofolate reductase [12] = biological target: Dihydrofolate reductase (Homo sapiens, UniProt P00374)
# Sequence of Dihydrofolate reductase (Homo sapiens, UniProt P00374) (P00374 whole entry): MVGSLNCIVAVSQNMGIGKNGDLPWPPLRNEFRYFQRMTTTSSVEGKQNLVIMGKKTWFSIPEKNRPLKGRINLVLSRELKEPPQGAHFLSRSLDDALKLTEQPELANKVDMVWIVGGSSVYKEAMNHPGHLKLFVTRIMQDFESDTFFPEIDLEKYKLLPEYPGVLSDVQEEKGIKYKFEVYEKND
# Description: Inhibition of rh dihydrofolate reductase (DHFR)
# R1 [13] = assay: Inhibition of growth of R1(n=2); details: Homo sapiens
# [14] = substrate: CCC(Cc1coc2nc(N)cc(N)c12)c1ccc(C(=O)NC(CCC(=O)O)C(=O)O)cc1; assay: (§1) folyl-poly-glutamate synthetase activity measured as Km
# [15] = substrate: Nc1nc(N)c2nc(CNc3ccc(C(=O)N[C@@H](CCC(=O)O)C(=O)O)cc3)cnc2n1; assay: as §1
# [16] = substrate: CCC(Cc1coc2nc(N)cc(N)c12)c1ccc(C(=O)NC(CCC(=O)O)C(=O)O)cc1; assay: folyl-poly-glutamate synthetase activity measured as Vmax
# [17] = substrate: Nc1nc(N)c2nc(CNc3ccc(C(=O)N[C@@H](CCC(=O)O)C(=O)O)cc3)cnc2n1; assay: folyl-poly-glutamate synthetase activity measured as Vmax; rel means relative
molecule,measurement,setting,value
CN(Cc1cnc2nc(N)nc(N)c2n1)c1ccc(C(=O)N[C@@H](CCC(=O)O)C(=O)O)cc1 [METHOTREXATE],EC50,[1],15 nM
same,EC50,R2 [2],2600 nM
same,EC50,R1 [3],1050 nM
CCC(Cc1coc2nc(N)cc(N)c12)c1ccc(C(=O)NC(CCC(=O)O)C(=O)O)cc1 (configuration not stated),GI50,ACHN,< 10 nM
same,GI50,A549,13.8 nM
same,EC50,CCRF-CEM [4],35.5 nM
same,GI50,CCRF-CEM [5],< 10 nM
same,IC50,[6],1100 nM
same,IC50,Dihydrofolate reductase [7],440 nM
same,GI50,HL-60,< 10 nM
same,GI50,HCT-15,< 10 nM
same,GI50,K562,< 10 nM
same,GI50,LOX IMVI,23.7 nM
same,GI50,MDA-N,< 10 nM
same,GI50,MDA-MB-435,< 10 nM
same,GI50,MCF7,< 10 nM
same,GI50,NCI-H522,< 10 nM
same,GI50,NCI-H460,< 10 nM
same,GI50,OVCAR-5,< 10 nM
same,EC50,[1],50 nM
same,GI50,RPMI-8226,< 10 nM
same,GI50,SF-295,< 10 nM
same,GI50,SW-620,< 10 nM
same,GI50,SR,< 10 nM
same,GI50,SF-539,< 10 nM
same,GI50,SK-MEL-5,81.8 nM
same,GI50,SF-268,< 10 nM
same,IC50,Thymidylate synthase [8],220000 nM
same,GI50,TK-10,340 nM
same,GI50,UO-31,< 10 nM
same,IC50,Thymidylate synthase [9],220000 nM
same,GI50,U-251,23.2 nM
same,GI50,HT-29,23.9 nM
same,GI50,[10],< 10 nM
same,GI50,CAKI-1,< 10 nM
same,EC50,R2 [11],890 nM
same,IC50,Dihydrofolate reductase [12],220 nM
same,EC50,R1 [13],2100 nM
"Folylpolyglutamate synthase, mitochondrial (Homo sapiens), Q05932 (protein) MSRARSHLRAALFLAAASARGITTQVAARRGLSAWPVPQEPSMEYQDAVRMLNTLQTNAGYLEQVKRQRGDPQTQLEAMELYLARSGLQVEDLDRLNIIHVTGTKGKGSTCAFTECILRSYGLKTGFFSSPHLVQVRERIRINGQPISPELFTKYFWRLYHRLEETKDGSCVSMPPYFRFLTLMAFHVFLQEKVDLAVVEVGIGGAYDCTNIIRKPVVCGVSSLGIDHTSLLGDTVEKIAWQKGGIFKQGVPAFTVLQPEGPLAVLRDRAQQISCPLYLCPMLEALEEGGPPLTLGLEGEHQRSNAALALQLAHCWLQRQDRHGAGEPKASRPGLLWQLPLAPVFQPTSHMRLGLRNTEWPGRTQVLRRGPLTWYLDGAHTASSAQACVRWFRQALQGRERPSGGPEVRVLLFNATGDRDPAALLKLLQPCQFDYAVFCPNLTEVSSTGNADQQNFTVTLDQVLLRCLEHQQHWNHLDEEQASPDLWSAPSPEPGGSASLLLAPHPPHTCSASSLVFSCISHALQWISQGRDPIFQPPSPPKGLLTHPVAHSGASILREAAAIHVLVTGSLHLVGGVLKLLEPALSQ",Km,[14],1.1 µM
same,Km,[15],3.2 µM
same,Vmax,[16],0.37 rel
same,Vmax,[17],1 rel
